Experimental data published in patent publication US20230233576A1, “ECLITASERTIB FOR USE IN TREATING CONDITIONS INVOLVING SYSTEMIC HYPERINFLAMMATORY RESPONSE” (priority 2020, published 2023).

System: adult participants hospitalized for severe COVID-19
Assay: Phase 1b severe COVID-19 study: ECG abnormalities (PCSA)
Format: in vivo, human
Details: 600 mg
Protocol: Physical examination including lung auscultation and assessment of consciousness, vital sign, electrocardiogram (ECG) parameters were measured per protocol.
For laboratory parameters (hematology, clinical chemistry, and urinalysis), vital signs, and ECG, incidences of potentially clinically significant abnormality (PCSA) values, actual values and change from baseline were summarized by treatment group.
For all laboratory, vital signs and ECG parameters, raw data and change from baseline were summarized in descriptive statistics by treatment group and scheduled time of measurement, with the exception of AST, ALT and alkaline phosphatase: instead of summarizing data in descriptive statistics, participants' profiles were presented through graphics by treatment group and with a color code to identify sites. The reason was that blood samples were processed by local laboratories with different normal ranges. For the rest of clinical laboratory these parameters it is reasonable to pool data as they are standard procedure and no significant differences in normal ranges were expected.

[1] = individual participant 70.0 kg, Discharge Before Day 15
[2] = individual participant 87.2 kg, Discharge Before Day 15
[3] = individual participant 120.0 kg, Day 15
[4] = individual participant 125.0 kg, Discharge Before Day 15

CN1C(=O)[C@@H](NC(=O)c2nnc(Cc3ccccc3)[nH]2)COc2cccnc21 [RIPKl Inhibitor]
HR (bpm) Delta (change from baseline) [1]: −25 bpm | HR (bpm) Value [1]: 76 bpm | PR % change from baseline [1]: 0.0% | PR (ms) Value [1]: 120 ms | QRS % change from baseline [1]: −38% | QRS (ms) Value [1]: 100 ms | QT (ms) Delta (change from baseline) [1]: 100 ms | QT (ms) Value [1]: 460 ms | QTcB (ms) Delta (change from baseline) [1]: 50 + ms | QTcB (ms) Value [1]: 517 ++ ms | QTcF (ms) Delta (change from baseline) [1]: 75 ++ ms | QTcF (ms) Value [1]: 495 ++ ms | HR (bpm) Delta (change from baseline) [2]: 18 bpm | HR (bpm) Value [2]: 86 bpm | PR % change from baseline [2]: 0.0% | PR (ms) Value [2]: 150 ms | QRS % change from baseline [2]: 25.0% | QRS (ms) Value [2]: 100 ms | QT (ms) Delta (change from baseline) [2]: 30 ms | QT (ms) Value [2]: 370 ms | QTcB (ms) Delta (change from baseline) [2]: 81 ++ ms | QTcB (ms) Value [2]: 443 ms | QTcF (ms) Delta (change from baseline) [2]: 63 ++ ms | QTcF (ms) Value [2]: 417 ms | HR (bpm) Delta (change from baseline) [3]: 0 bpm | HR (bpm) Value [3]: 69 bpm | PR % change from baseline [3]: 31.9% | PR (ms) Value [3]: 124 ms | QRS % change from baseline [3]: −28% | QRS (ms) Value [3]: 82 ms | QT (ms) Delta (change from baseline) [3]: 4 ms | QT (ms) Value [3]: 482 ms | QTcB (ms) Delta (change from baseline) [3]: 4 ms | QTcB (ms) Value [3]: 518 ++ ms | HR (bpm) Delta (change from baseline) [4]: −6 bpm | HR (bpm) Value [4]: 77 bpm | PR % change from baseline [4]: 0.0% | PR (ms) Value [4]: 160 ms | QRS % change from baseline [4]: −4.8% | QRS (ms) Value [4]: 80 ms | QT (ms) Delta (change from baseline) [4]: 118 ms | QT (ms) Value [4]: 466 ms | QTcB (ms) Delta (change from baseline) [4]: 121 ++ ms | QTcB (ms) Value [4]: 530 ++ ms
